We go through seven molecules from patent publication US20230143604A1, “QW DOSING OF GIP RECEPTOR AGONIST PEPTIDE COMPOUNDS AND USES THEREOF” (TAKEDA PHARMACEUTICAL COMPANY LIMITED, priority 2020, published 2023).

Starred links: 1 amine or outer side, 2 acyl side, 3 side chain; linkers in the order of their positions; H or OH if unused. Non-standard residues stand in square brackets, D forms with d. Residues, ends and D or L forms follow the SMILES beside them. Groups on a side chain read outwards from the residue. *: point of attachment. C18 diacid = O=C(O)CCCCCCCCCCCCCCCCC(=O)*; C17 diacid = O=C(O)CCCCCCCCCCCCCCCC(=O)*; γGlu = O=C(O)[C@H](CCC(=O)[*:2])N[*:1]; NMeY = CN[C@@H](Cc1ccc(O)cc1)C(=O)O; AEEA = NCCOCCOCC(=O)O; Aib = CC(C)(N)C(=O)O

The nature of the data set: physchem. Here is the method:
Solubility of the GIPR peptides may be determined by dissolution in a phosphate buffer followed by quantitation using liquid chromatography, for example, High Performance Liquid Chromatogry (HPLC). An illustrative method is provided. For determination of the solubility of the GIPr agonist peptides, 3 mg of peptides are weighted out in a small glass vial. 100 μL of 200 mM Phosphate buffer pH 7.4 are added and the vial is sonicated/votexed as necessary for a maximum of 1 min. […] If insoluble material is observed in the tube the addition of 100 μL of buffer and mixing is repeated until complete dissolution.
3 mg of peptides are weighted out in a small glass vial. 100 uL of 200 mM Phosphate buffer pH 7.4 are added and the vial is sonicated/votexed as necessary for a maximum of 1 min. […] If insoluble material is observed in the tube the addition of 100 uL of buffer and mixing is repeated until complete dissolution.

Take `CC[C@H](C)[C@H](NC(=O)[C@H](CO)NC(=O)[C@H](Cc1ccc(O)cc1)NC(=O)[C@H](CC(=O)O)NC(=O)[C@H](CO)NC(=O)[C@@H](NC(=O)[C@H](Cc1ccccc1)NC(=O)[C@@H](NC(=O)CNC(=O)[C@H](CCC(=O)O)NC(=O)C(C)(C)NC(=O)[C@@H](N)Cc1ccc(O)cc1)[C@@H](C)O)[C@@H](C)CC)C(=O)N[C@@H](C)C(=O)N[C@@H](CC(C)C)C(=O)N[C@@H](CC(=O)O)C(=O)N[C@@H](CCCCN)C(=O)NC(C)(C)C(=O)N[C@@H](C)C(=O)N[C@@H](CCC(N)=O)C(=O)N[C@@H](CCC(N)=O)C(=O)N[C@@H](CCCCNC(=O)COCCOCCNC(=O)COCCOCCNC(=O)CC[C@H](NC(=O)CC[C@H](NC(=O)CCCCCCCCCCCCCCCC(=O)O)C(=O)O)C(=O)O)C(=O)N[C@@H](Cc1ccccc1)C(=O)N[C@H](C(=O)N[C@@H](CCC(=O)O)C(=O)N[C@@H](Cc1c[nH]c2ccccc12)C(=O)N[C@@H](CC(C)C)C(=O)N[C@@H](CC(C)C)C(=O)N[C@@H](C)C(=O)N[C@@H](CCC(N)=O)C(=O)N[C@@H](CCCNC(=N)N)C(=O)NCC(=O)O)C(C)C` [Compound 130] (H-Y[Aib]EGTFISDYSIALDK[Aib]AQQK([AEEA-AEEA-γGlu-γGlu-C17 diacid])FVEWLLAQRG-OH): the solubility (in general, the concentration that dissolves in the medium under given conditions) by setting is: (pH 7.4) at least 15 mg/mL; (pH 7.4, aqueous buffer) at least 30 mg/mL.
The matching figures for `CC[C@H](C)[C@H](NC(=O)[C@H](Cc1ccccc1)NC(=O)[C@@H](NC(=O)CNC(=O)[C@H](CCC(=O)O)NC(=O)C(C)(C)NC(=O)[C@H](Cc1ccc(O)cc1)NC)[C@@H](C)O)C(=O)N[C@@H](CO)C(=O)N[C@@H](CC(=O)O)C(=O)N[C@@H](Cc1ccc(O)cc1)C(=O)N[C@@H](CO)C(=O)N[C@H](C(=O)NC(C)(C)C(=O)N[C@@H](CC(C)C)C(=O)N[C@@H](CC(=O)O)C(=O)N[C@@H](CCCNC(=N)N)C(=O)NC(C)(C)C(=O)N[C@@H](C)C(=O)N[C@@H](CCC(N)=O)C(=O)NC(C)(C)C(=O)N[C@@H](CCCCNC(=O)COCCOCCNC(=O)COCCOCCNC(=O)CC[C@H](NC(=O)CC[C@H](NC(=O)CCCCCCCCCCCCCCCC(=O)O)C(=O)O)C(=O)O)C(=O)N[C@@H](Cc1ccccc1)C(=O)N[C@H](C(=O)N[C@@H](CC(N)=O)C(=O)N[C@@H](Cc1c[nH]c2ccccc12)C(=O)N[C@@H](CC(C)C)C(=O)N[C@@H](CC(C)C)C(=O)N[C@@H](C)C(=O)N[C@@H](CCC(N)=O)C(=O)N[C@@H](CCCNC(=N)N)C(=O)NCC(=O)O)C(C)C)[C@@H](C)CC` [Compound 127] (H-[NMeY][Aib]EGTFISDYSI[Aib]LDR[Aib]AQ[Aib]K([AEEA-AEEA-γGlu-γGlu-C17 diacid])FVNWLLAQRG-OH): at least 15 mg/mL and at least 30 mg/mL.
`CC[C@H](C)[C@H](NC(=O)[C@H](CCCCN)NC(=O)[C@H](CC(=O)O)NC(=O)[C@H](CC(C)C)NC(=O)[C@H](C)NC(=O)[C@@H](NC(=O)[C@H](CO)NC(=O)[C@H](Cc1ccc(O)cc1)NC(=O)[C@H](CC(=O)O)NC(=O)[C@H](CO)NC(=O)[C@@H](NC(=O)[C@H](Cc1ccccc1)NC(=O)[C@@H](NC(=O)CNC(=O)[C@H](CCC(=O)O)NC(=O)C(C)(C)NC(=O)[C@@H](N)Cc1ccc(O)cc1)[C@@H](C)O)[C@@H](C)CC)[C@@H](C)CC)C(=O)N[C@@H](C)C(=O)N[C@@H](CCC(N)=O)C(=O)NC(C)(C)C(=O)N[C@@H](CCCCNC(=O)COCCOCCNC(=O)COCCOCCNC(=O)CC[C@H](NC(=O)CC[C@H](NC(=O)CCCCCCCCCCCCCCCCC(=O)O)C(=O)O)C(=O)O)C(=O)N[C@@H](Cc1ccccc1)C(=O)N[C@H](C(=O)N[C@@H](CCC(=O)O)C(=O)N[C@@H](Cc1c[nH]c2ccccc12)C(=O)N[C@@H](CC(C)C)C(=O)N[C@@H](CC(C)C)C(=O)N[C@@H](C)C(=O)N[C@@H](CCC(N)=O)C(=O)N[C@@H](CCCNC(=N)N)C(=O)NCC(=O)O)C(C)C` [Compound 153] (H-Y[Aib]EGTFISDYSIALDKIAQ[Aib]K([AEEA-AEEA-γGlu-γGlu-C18 diacid])FVEWLLAQRG-OH) registered a solubility (pH 7.4) of at least 15 mg/mL and a solubility (pH 7.4, aqueous buffer) of at least 30 mg/mL.
The corresponding values for `CC[C@H](C)[C@H](NC(=O)[C@H](CO)NC(=O)[C@H](Cc1ccc(O)cc1)NC(=O)[C@H](CC(=O)O)NC(=O)[C@H](CO)NC(=O)[C@@H](NC(=O)[C@H](Cc1ccccc1)NC(=O)[C@@H](NC(=O)CNC(=O)[C@H](CCC(=O)O)NC(=O)C(C)(C)NC(=O)[C@@H](N)Cc1ccc(O)cc1)[C@@H](C)O)[C@@H](C)CC)C(=O)N[C@@H](C)C(=O)N[C@@H](CC(C)C)C(=O)N[C@@H](CC(=O)O)C(=O)N[C@@H](CCCNC(=N)N)C(=O)NC(C)(C)C(=O)N[C@@H](C)C(=O)N[C@@H](CCC(N)=O)C(=O)NC(C)(C)C(=O)N[C@@H](CCCCNC(=O)COCCOCCNC(=O)COCCOCCNC(=O)CC[C@H](NC(=O)CC[C@H](NC(=O)CCCCCCCCCCCCCCCC(=O)O)C(=O)O)C(=O)O)C(=O)N[C@@H](Cc1ccccc1)C(=O)N[C@H](C(=O)N[C@@H](CC(N)=O)C(=O)N[C@@H](Cc1c[nH]c2ccccc12)C(=O)N[C@@H](CC(C)C)C(=O)N[C@@H](CC(C)C)C(=O)N[C@@H](C)C(=O)N[C@@H](CCC(N)=O)C(=O)N[C@@H](CCCNC(=N)N)C(=O)NCC(=O)O)C(C)C` [Compound 140] (H-Y[Aib]EGTFISDYSIALDR[Aib]AQ[Aib]K([AEEA-AEEA-γGlu-γGlu-C17 diacid])FVNWLLAQRG-OH) are at least 15 mg/mL and at least 30 mg/mL.
`CC[C@H](C)[C@H](NC(=O)[C@H](Cc1ccccc1)NC(=O)[C@@H](NC(=O)CNC(=O)[C@H](CCC(=O)O)NC(=O)C(C)(C)NC(=O)[C@H](Cc1ccc(O)cc1)NC)[C@@H](C)O)C(=O)N[C@@H](CO)C(=O)N[C@@H](CC(=O)O)C(=O)N[C@@H](Cc1ccc(O)cc1)C(=O)N[C@@H](CO)C(=O)N[C@H](C(=O)NC(C)(C)C(=O)N[C@@H](CC(C)C)C(=O)N[C@@H](CC(=O)O)C(=O)N[C@@H](CCCNC(=N)N)C(=O)N[C@@H](CCCCNC(=O)CNC(=O)CNC(=O)CNC(=O)CNC(=O)CNC(=O)CCCCCCCCCCCCCCCCC(=O)O)C(=O)N[C@@H](C)C(=O)N[C@@H](CCC(N)=O)C(=O)NC(C)(C)C(=O)N[C@@H](CC(=O)O)C(=O)N[C@@H](Cc1ccccc1)C(=O)N[C@H](C(=O)N[C@@H](CC(N)=O)C(=O)N[C@@H](Cc1c[nH]c2ccccc12)C(=O)N[C@@H](CC(C)C)C(=O)N[C@@H](CC(C)C)C(=O)N[C@@H](C)C(=O)N[C@@H](CCC(N)=O)C(=O)N[C@@H](CCCNC(=N)N)C(=O)NCC(=O)O)C(C)C)[C@@H](C)CC` [Compound 284] showed a solubility (pH 7.4, aqueous buffer) below 15 mg/mL.
`CC[C@H](C)[C@H](NC(=O)[C@H](CO)NC(=O)[C@H](Cc1ccc(O)cc1)NC(=O)[C@H](CC(=O)O)NC(=O)[C@H](CO)NC(=O)[C@@H](NC(=O)[C@H](Cc1ccccc1)NC(=O)[C@@H](NC(=O)CNC(=O)[C@H](CCC(=O)O)NC(=O)C(C)(C)NC(=O)[C@H](Cc1ccc(O)cc1)NC)[C@@H](C)O)[C@@H](C)CC)C(=O)N[C@@H](C)C(=O)N[C@@H](CC(C)C)C(=O)N[C@@H](CCCCN)C(=O)N[C@@H](CCCNC(=N)N)C(=O)N[C@@H](CCCCNC(=O)CNC(=O)CNC(=O)CNC(=O)CNC(=O)CNC(=O)CNC(=O)CCCCCCCCCCCCCCCCC(=O)O)C(=O)N[C@@H](Cc1c[nH]cn1)C(=O)N[C@@H](CCC(N)=O)C(=O)NC(C)(C)C(=O)N[C@@H](CC(N)=O)C(=O)N[C@@H](Cc1ccccc1)C(=O)N[C@H](C(=O)N[C@@H](CC(N)=O)C(=O)N[C@@H](Cc1c[nH]c2ccccc12)C(=O)N[C@@H](CC(C)C)C(=O)N[C@@H](CC(C)C)C(=O)N[C@@H](C)C(=O)N[C@@H](CCC(N)=O)C(=O)N[C@@H](CCCNC(=N)N)C(=O)N1CCC[C@H]1C(=O)N[C@@H](CO)C(=O)N[C@@H](CO)C(=O)NCC(=O)N[C@@H](C)C(=O)N1CCC[C@H]1C(=O)N1CCC[C@H]1C(=O)N1CCC[C@H]1C(=O)N[C@@H](CO)C(=O)N[C@@H](CCCNC(=N)N)C(N)=O)C(C)C` [Compound 280] yielded a solubility (pH 7.4, aqueous buffer, pH 7.4 Phosphate Buffer - Solubility, 200 mM Phosphate buffer pH 7.4) below 15 mg/mL.
For the setting “pH 7.4, aqueous buffer”, `CC[C@H](C)[C@H](NC(=O)[C@H](CO)NC(=O)[C@H](Cc1ccc(O)cc1)NC(=O)[C@H](CC(=O)O)NC(=O)[C@H](CO)NC(=O)[C@@H](NC(=O)[C@H](Cc1ccccc1)NC(=O)[C@@H](NC(=O)CNC(=O)[C@H](CCC(=O)O)NC(=O)C(C)(C)NC(=O)[C@H](Cc1ccc(O)cc1)NC)[C@@H](C)O)[C@@H](C)CC)C(=O)N[C@@H](C)C(=O)N[C@@H](CCCCNC(=O)COCCOCCNC(=O)COCCOCCNC(=O)CC[C@H](NC(=O)CCCCCCCCCCCCCCCC(=O)O)C(=O)O)C(=O)N[C@@H](CC(=O)O)C(=O)N[C@@H](CCCNC(=N)N)C(=O)NC(C)(C)C(=O)N[C@@H](C)C(=O)N[C@@H](CCC(N)=O)C(=O)NC(C)(C)C(=O)N[C@@H](CC(N)=O)C(=O)N[C@@H](Cc1ccccc1)C(=O)N[C@H](C(=O)N[C@@H](CC(N)=O)C(=O)N[C@@H](Cc1c[nH]c2ccccc12)C(=O)N[C@@H](CC(C)C)C(=O)N[C@@H](CC(C)C)C(=O)N[C@@H](C)C(=O)N[C@@H](CCC(N)=O)C(=O)N[C@@H](CCCCN)C(=O)O)C(C)C` [Compound 255] (H-[NMeY][Aib]EGTFISDYSIAK([AEEA-AEEA-γGlu-C17 diacid])DR[Aib]AQ[Aib]NFVNWLLAQK-OH; C-terminus assumed) had a solubility of at least 10 mg/mL.
